Measured values taken from PubChem BioAssay (NCI).
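Tested at 5 concentrations; 48 h exposure; 96-well plates; endpoints linearly interpolated, else capped at highest concentration. TGI: concentration producing complete growth inhibition.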

Experiments:
Assay in all cases: NCI-60 cell line screen, 48 h
[1] = system: HCT-116 colon
[2] = system: HL-60(TB) leukemia
[3] = system: HT29 colon
[4] = system: LOX IMVI melanoma
[5] = system: MDA-MB-231 breast
[6] = system: MOLT-4 leukemia
[7] = system: OVCAR-8 ovarian
[8] = system: RPMI-8226 leukemia
[9] = system: SF-295 CNS
[10] = system: SR leukemia
[11] = system: U251 CNS
[12] = system: UACC-257 melanoma

| SMILES | TGI [1] [µM] | TGI [2] [µM] | TGI [3] [µM] | TGI [4] [µM] | TGI [5] [µM] | TGI [6] [µM] | TGI [7] [µM] | TGI [8] [µM] | TGI [9] [µM] | TGI [10] [µM] | TGI [11] [µM] | TGI [12] [µM] |
| --- | --- | --- | --- | --- | --- | --- | --- | --- | --- | --- | --- | --- |
| CCCCCC(=O)OC[n+]1ccc(-c2c(COC(=O)NC(C)C)c(COC(=O)NC(C)C)c3n2CCC3)cc1 | > 100 | 96.8 | > 100 | > 100 | > 100 | > 100 | > 100 | > 100 | > 100 | > 80.9 | > 100 | > 100 |
| FC1(F)SC2CCCCCCCCCCC2C1(F)F (stereo not drawn) | 37.1 | 30.3 | 96.5 | 31.6 | > 100 | > 100 | > 100 | > 100 | > 100 | > 100 | 63.6 | 69.8 |
| COc1ccc(-c2c3c(n(C4OC(COC(C)=O)C(OC(C)=O)C(OC(C)=O)C4OC(C)=O)c(=S)c2C#N)CCCC3)cc1 (stereo not drawn) | > 100 | > 100 | > 100 | > 100 | > 100 | > 100 | > 100 | – | > 100 | > 100 | > 100 | > 100 |
| CCN(CC)C(=O)CCNC(C)Cc1c[nH]c2ccccc12 (stereo not drawn) | > 100 | > 100 | > 100 | > 100 | > 100 | > 100 | > 100 | > 100 | > 100 | > 100 | > 100 | > 100 |
| O=C(O)Cc1ccc(-n2nnc3c(=O)[nH][nH]c(=O)c32)cc1 | > 100 | > 100 | > 100 | > 100 | > 100 | > 100 | > 100 | > 100 | > 100 | > 100 | > 100 | > 100 |
| CCOC(=O)C1=CN(Cc2ccccc2)C2ON=C(c3ccc(Cl)cc3)C2C1 (stereo not drawn) | > 61.9 | > 47.1 | > 71.4 | > 74.2 | > 61.6 | > 100 | > 67.4 | > 100 | > 67 | 97.4 | 30.7 | > 66.8 |
| CCOC(=O)C(C(=O)OCC)C(=S)NC1OC(COC(C)=O)C(OC(C)=O)C(OC(C)=O)C1OC(C)=O (stereo not drawn) | > 100 | > 100 | > 100 | > 100 | > 100 | > 100 | > 100 | > 100 | > 100 | > 100 | > 100 | > 100 |
| O=C(Nc1ccccn1)c1cc2c(cc1Cl)Sc1nccn1S2(=O)=O | > 100 | 74.3 | > 100 | > 100 | 53 | > 100 | > 100 | > 100 | > 100 | > 100 | > 100 | > 100 |
| COc1ccc(C(CC(=O)c2ccc(O)cc2)C(C(=O)c2ccc(O)cc2)C(c2ccc(OC)cc2)C2C(=O)NC(=S)NC2=O)cc1 (stereo not drawn) | 30.4 | 85.6 | > 100 | 38 | 55.9 | > 100 | 60 | 92.4 | 52.3 | > 100 | 72.3 | 41 |
| O=C1CN2CCN(CC2)CC(=O)Nc2ccc(cc2)S(=O)(=O)c2ccc(cc2)NC(=O)CN2CCN(CC2)CC(=O)Nc2ccc(cc2)S(=O)(=O)c2ccc(cc2)N1 | 71.9 | > 100 | 51 | > 100 | 43.1 | > 89 | > 100 | > 80.8 | > 100 | > 100 | > 94.3 | > 100 |
| COC(=O)Cc1c(-c2c(CC(=O)OC)c3ccccc3n2C2OC(COC3OC(COC(C)=O)C(OC(C)=O)C(OC(C)=O)C3OC(C)=O)C(O)C(O)C2O)[nH]c2ccccc12 (stereo not drawn) | > 100 | > 100 | > 100 | > 100 | > 100 | > 100 | – | > 100 | > 100 | > 100 | > 100 | > 100 |
| COc1ccc2oc(=O)c(-c3nc4ccccc4s3)cc2c1 | 37.6 | > 100 | 33.1 | 49.5 | 53.2 | > 100 | 36.9 | > 100 | > 57.3 | > 100 | > 49.6 | > 100 |
| COc1ccc(/C=C/C(=O)N[C@@H]2C(=O)N3[C@@H]2SC(C)(C)[C@@H]3C(=O)O)cc1OC | > 100 | > 100 | > 100 | > 100 | > 100 | > 100 | > 100 | > 100 | > 100 | > 100 | > 100 | > 100 |
| CC(C)(C)OC(=O)/C=C/[C@@H](CCC(=O)/C=C/[C@H](/C=C\CCCC(=O)O)NC1(c2ccccc2)c2ccccc2-c2ccccc21)O[Si](C)(C)C(C)(C)C | 30.2 | 86.1 | 30.1 | 27.6 | 28.4 | > 100 | 55 | 85.1 | 33.5 | > 100 | 30.9 | 34.2 |
| C/C(=N\Nc1nc2ccccc2[nH]1)c1ccc2ccccc2n1 | 7.48 | 5.04 | – | 10.2 | 12.5 | 2.64 | > 100 | 3.15 | 8.29 | 0.448 | 14.3 | 24.9 |
| O=c1oc2ccc([N+](=O)[O-])cc2cc1-c1csc(-c2ccccc2)n1 | > 100 | > 100 | > 100 | > 100 | > 100 | > 100 | > 100 | > 100 | > 100 | > 100 | > 100 | > 100 |
| Cc1cn(C2CC(/[N+]([O-])=N\Nc3ccc([N+](=O)[O-])cc3)C(CO)O2)c(=O)[nH]c1=O (stereo not drawn) | > 100 | > 100 | > 100 | > 100 | > 100 | > 100 | > 100 | > 100 | > 100 | > 100 | > 100 | > 100 |
| CN(C)C=Nc1cccc2c1NSN2 | > 100 | > 100 | > 100 | > 100 | > 100 | > 100 | > 100 | > 100 | > 100 | > 100 | > 100 | > 100 |
